In series [1] the test system is NCI-H929 xenograft tumor. Description: Pharmacodynamic test: NCI-H929 xenograft tumor in CB-17 SCID mice. In kind it is in vivo. The note with it: for Number of remaining animals/group: 1 mg/kg qd/11 d, oral. The procedure: This experiment was performed to evaluate the inhibition effect of the compound of Example 1 and the control example CC-92480 on the growth of human multiple myeloma cell NCI-H929 xenograft tumor in CB-17 SCID mice.
Solutions of the compound of Example 1 and the control example CC-92480 were prepared with 5% DMSO+20% PEG400+70% (10% TPGS)+5% (1% HPMC K100LV).
Thirty CB-17 SCID female mice, purchased from Beijing Vital River Laboratory Animal Technology Co., Ltd. (certificate No. 20170011006049, SCXK (Shanghai) 2017-0011), weighing about 19 g at the time of purchase, were bred at 5 mice/cage (in a 12/12 hour light/dark cycle, at a constant temperature of 23±1° C. and humidity of 50%-60%) and had free access to food and water.
After adaptive feeding, the CB-17 SCID mice were grouped as follows:
NCI-H929 cells in a logarithmic growth phase were inoculated subcutaneously into the right flank of 30 female CB-17 SCID mice at 5×10^6 cells/mouse/100 μL (containing […] of Matrigel). After 10 days, when the tumor volume of the tumor-bearing mice reached about 200 mm^3, the mice were randomly divided into 3 groups according to the tumor volume and body weight: vehicle control group, CC-92480-1 mpk, compound of Example 1-1 mpk, with […]. The day of grouping was set as Day 0 (DO), and intragastric administration was performed once a day for 11 days (Table 2). For the tumor-bearing mice, the tumor volume was measured with a vernier caliper and the body weight was measured with a balance twice a week, and the data were recorded.
The tumor volume (V) was calculated as follows: V=1/2×a×b^2, where a and b represent length and width, respectively.
The relative tumor proliferation rate T/C (%)=(T−T0)/(C−C0)×100(%), where T and C are the tumor volume of animals at the end of the experiment in the treatment group and control group, respectively; T0 and C0 are the tumor volume of animals at the beginning of the experiment in the treatment group and control group, respectively. […]

Series [2] can be described thus: Influencing factor stability of crystal forms (light, high temperature, high humidity, 30 days). In kind it is physicochemical. The procedure: Each crystal form was spread out in an open exposure setup, and the stability of the samples under conditions of light (4500 Lux), high temperature (40° C., 60° C.), and high humidity (RH 75 RH 92.5%) was examined separately. The sampling inspection period was 30 days.

A short description of series [3]: Hygroscopicity study of crystal forms (dynamic vapour sorption, 25° C.). In kind it is physicochemical. The source says:
According to the “9103 Guideline for Hygroscopicity for Pharmaceuticals” in Part IV of the 2015 edition of the Chinese Pharmacopoeia, descriptions of hygroscopic characteristics and definitions of hygroscopic weight gain are as follows; • Deliquescent: Absorbs sufficient moisture to form a liquid; • Extremely hygroscopic: Hygroscopic weight gain is no less than 15%; • Hygroscopic: Hygroscopic weight gain is less than 15% but no less than 2%; • Slightly hygroscopic: Hygroscopic weight gain is less than 2% but no less than 0.2%; • Non-hygroscopic or nearly non-hygroscopic: Hygroscopic weight gain is less than 0.2%.
Compound of Formula (I) (Oct. 15, 2021, Nanjing) 03881 Using the Surface Measurement Systems advantage 2, at a temperature of 25° C., and starting at a humidity of 50%, the humidity range was examined from […] to 95%, with increments of 10%. The criterion for evaluation was that the mass change dM/dT at each gradient was less than 0.002%, TMAX was 360 min, and the process was cycled twice.

Series [4] is described as follows: Long-term/accelerated stability of crystal forms (25° C. 60% RH and 40° C. 75% RH). It counts as physicochemical. The procedure: The crystal forms D, E, Q, and U of the compound of formula (I) were respectively placed under conditions of 25° C. with 60% RH and 40° C. with 75% RH to evaluate their stability.
Where [5] appears, read: 92.5% RH, 7 days, open exposure.

The results in this text go back to patent US20250154126A1, “CRYSTALLINE FORM OF SULFUR-CONTAINING ISOINDOLINE DERIVATIVE” (JIANGSU HENGRUI PHARMACEUTICALS CO., LTD., priority 2022, published 2025).

As to `N#Cc1ccc(N2CCN(Cc3ccc(COc4cccc5c4CN([C@H]4CCC(=O)NC4=O)C5=O)cc3)CC2)c(F)c1` [CC-92480, reference compound], the “Number of remaining animals/group” value in series [1] is 7/7.

Turning to `N#Cc1ccc(N2CCC(Sc3ccc(COc4cccc5c4CN([C@H]4CCC(=O)NC4=O)C5=O)cn3)CC2)c(F)c1` [Crystal form U, (S)-4-(4-((5-(((2-(2,6-dioxopiperidin-3-yl)-1-oxoisoindolin-4-yl)oxy)methyl)pyridin-2-yl)thio)piperidin-1-yl)-3-fluorobenzonitrile], the Color and character result is “White solid” in series [2] (40° C., 7 days, open exposure); “White solid” in series [2] (40° C., 14 days, open exposure); “White solid” in series [2] (40° C., 30 days, open exposure); “White solid” in series [2] (60° C., 7 days, open exposure); “White solid” in series [2] (60° C., 14 days, open exposure); “White solid” in series [2] (60° C., 30 days, open exposure). Further, the Color and character entry in series [2] (75% RH, 7 days, open exposure) is given as “White solid”; in series [2] (75% RH, 14 days, open exposure) it was “White solid”; in series [2] (75% RH, 30 days, open exposure), “White solid”; in series [2] (setting [5]) it was “White solid”; in series [2] (92.5% RH, 14 days, open exposure), “White solid”; in series [2] (92.5% RH, 30 days, open exposure), “White solid”. In addition, the Color and character result in series [2] (Onset, 0 days) is given as “White solid”; in series [2] (light 4500 Lux, 7 days, open exposure), “White solid”; in series [2] (light 4500 Lux, 14 days, open exposure), “White solid”; in series [2] (light 4500 Lux, 30 days, open exposure), “White solid”. The Purity % is given as 99.5% in series [2] (40° C., 7 days, open exposure); 99.3% in series [2] (40° C., 14 days, open exposure, listed as Free crystal form U); 98.8% in series [2] (40° C., 30 days, open exposure, listed as Free crystal form U); 98.9% in series [2] (60° C., 7 days, open exposure, listed as Free crystal form U); 98.5% in series [2] (60° C., 14 days, open exposure, listed as Free crystal form U); 97.5% in series [2] (60° C., 30 days, open exposure, listed as Free crystal form U). The Purity % in series [2] (75% RH, 7 days, open exposure) stood at 99.6%; in series [2] (75% RH, 14 days, open exposure, listed as Free crystal form U), 99.7%; in series [2] (75% RH, 30 days, open exposure, listed as Free crystal form U), 99.6%; in series [2] (setting [5]), 99.7%; in series [2] (92.5% RH, 14 days, open exposure, listed as Free crystal form U), 99.7%; in series [2] (92.5% RH, 30 days, open exposure, listed as Free crystal form U), 99.6%. Besides, the Purity % is given as 99.7% in series [2] (Onset, 0 days, listed as Free crystal form U); 99.3% in series [2] (light 4500 Lux, 7 days, open exposure, listed as Free crystal form U); 99.3% in series [2] (light 4500 Lux, 14 days, open exposure, listed as Free crystal form U); 98.8% in series [2] (light 4500 Lux, 30 days, open exposure, listed as Free crystal form U). Also, the “change in purity under 60° C. and light” value in series [2] (60° C. and light (4500 Lux), 30 days, open) is reported as “slight decrease in purity”. The “physicochemical stability under high humidity” value in series [2] (high humidity conditions of 75% and 92.5%, 30 days, open) is “good physicochemical stability”. Moreover, in series [2] (light, high temperature, high humidity, 30 days), the “crystal form after influencing factor experiments” value was “remain unchanged”. Moreover, the “Hygroscopic weight change 0.0% RH-95.0% RH” value in series [3] (0.0% RH-95.0% RH) worked out at 2.06%. Further, the “Hygroscopic weight change 20% RH-80% RH” value in series [3] (20% RH-80% RH) came to 1.03%. For the same compound, the “Hygroscopicity class (20% RH-80% RH)” value in series [3] (20% RH-80% RH) was “(slightly hygroscopic)”. The “Crystal form after hygroscopicity test” value in series [3] (two cycles) is “Untransformed”. Also, the “physical and chemical stability, long-term accelerated conditions” value in series [4] (25° C. 60% RH and 40° C. 75% RH, six months) was “good physical and chemical stability”. Moreover, the “Purity % 1 month” value in series [4] (25° C., 60% RH) is 99.7%; in series [4] (40° C., 75% RH) it was 99.7%. The “Purity % 2 months” value in series [4] (25° C., 60% RH) is given as 99.6%; in series [4] (40° C., 75% RH), 99.6%. Further, the “Purity % 3 months” value in series [4] (25° C., 60% RH) was 99.6%; in series [4] (40° C., 75% RH) it was 99.6%. The “Purity % 6 months” value in series [4] (40° C., 75% RH, 6 months) was determined as 99.5%. The “Purity % Onset” value in series [4] (onset) amounted to 99.7%.

Take `N#Cc1ccc(N2CCC(Sc3ccc(COc4cccc5c4CN([C@H]4CCC(=O)NC4=O)C5=O)cn3)CC2)c(F)c1` [Example 1, (S)-4-(4-((5-(((2-(2,6-dioxopiperidin-3-yl)-1-oxoisoindolin-4-yl)oxy)methyl)pyridin-2-yl)thio)piperidin-1-yl)-3-fluorobenzonitrile]: the “influence on the body weight of mice” value in series [1] (1 mg/kg qd, 11 days, CB-17 SCID mice) is “no influence”. The “Number of remaining animals/group” value in series [1] is given as 7/7.
